Measurements published in patent US20260256728A1, “TREATMENT FOR ASYMPTOMATIC STARGARDT DISEASE PATIENTS” (priority 2024, published 2026).

Legend:
[1] = tested on: asymptomatic Stargardt disease patients; experiment: TEASE-3 photoreceptor loss (ellipsoid zone band loss) by optical coherence tomography; format: in vivo, human
Description: FIG. 5 is a graph showing retinal photoreceptor loss over time in three asymptomatic Stargardt disease patients taking gildeuretinol acetate 14 mg daily. Lines are piecewise linear regressions with a knot time of 6 months and show the mean area of retinal photoreceptor loss of both eyes. Each symbol represents the area of photoreceptor loss for one eye. To measure photoreceptor loss, the ellipsoid zone layer was evaluated on b-scans acquired on Heidelberg engineering optical coherence tomography (Heidelberg, Germany).
The tolerability and effects of ALK-001 (gildeuretinol acetate) in Stargardt Disease (Clinical trial group 3, also known as TEASE-3) study was an open-label, multicenter, case control study designed to evaluate the efficacy and safety of gildeuretinol acetate on the progression of Stargardt disease in asymptomatic individuals. The trial was conducted at multiple sites in the United States.
Patients received gildeuretinol acetate 14 mg capsules, to be taken orally once daily. Trial visits occurred every 6 months approximately following screening and treatment start visits.
Disease progression was monitored by best-corrected visual acuity (BCVA) reported in number of Early Treatment Diabetic Retinopathy Study (ETDRS) letters, fundus autofluorescence (FAF) imaging, loss of photoreceptors (as measured by the ellipsoid zone band loss) by optical coherence tomography (OCT) and retinal sensitivity by microperimetry.
Measurements from the left and right eye for each patient were averaged for each visit to produce a single statistical unit for both eyes. For segmented linear regressions, knot times were selected so that three visits were included in the first segment.

[2] = TEASE-1 safety, adverse events

[2H]C([2H])([2H])C(/C=C/C=C(C)/C=C/C1=C(C)CCCC1(C)C)=C\COC(C)=O [gildeuretinol acetate]
progression of photoreceptor loss ([1]; first six months of treatment, average of two treated patients): approximately 0.18 mm^2/year | photoreceptor loss trend ([1]; following years of treatment): trended toward an improvement | photoreceptor loss, third patient ([1]; full treatment period): no photoreceptors were lost | average area of photoreceptor loss ([1]; in vivo): 0.36±0.32 mm^2 | average area of photoreceptor loss as share of the foveal area ([1]; in vivo): 20% | Patients experiencing event (%): Death ([2]; 14 mg (N = 15)): 1 (6.7) | Patients experiencing event (%): Influenza ([2]; 14 mg (N = 15)): 0 | Patients experiencing event (%): Vulvovaginal candidiasis ([2]; 14 mg (N = 15)): 0 | Patients experiencing event (%): Wrist fracture ([2]; 14 mg (N = 15)): 0 | Patients experiencing event (%): Xanthelasma ([2]; 14 mg (N = 15)): 0 | Patients experiencing event (%): Death ([2]; 24 mg (N = 15)): 0 | Patients experiencing event (%): Influenza ([2]; 24 mg (N = 15)): 1 (6.7) | Patients experiencing event (%): Vulvovaginal candidiasis ([2]; 24 mg (N = 15)): 1 (6.7) | Patients experiencing event (%): Wrist fracture ([2]; 24 mg (N = 15)): 0 | Patients experiencing event (%): Xanthelasma ([2]; 24 mg (N = 15)): 1 (6.7) | Patients experiencing event (%): Abdominal discomfort ([2]; Crossover (N = 10)): 1 (10.0) | Patients experiencing event (%): Abdominal distension ([2]; Crossover (N = 10)): 0 | Patients experiencing event (%): Abdominal pain upper ([2]; Crossover (N = 10)): 0 | Patients experiencing event (%): Abnormal dreams ([2]; Crossover (N = 10)): 0 | Patients experiencing event (%): Alanine aminotransferase increased ([2]; Crossover (N = 10)): 1 (10.0) | Patients experiencing event (%): Alopecia ([2]; Crossover (N = 10)): 0 | Patients experiencing event (%): Ankle fracture ([2]; Crossover (N = 10)): 0 | Patients experiencing event (%): Arthralgia ([2]; Crossover (N = 10)): 1 (10.0) | Patients experiencing event (%): Arthritis ([2]; Crossover (N = 10)): 1 (10.0) | Patients experiencing event (%): Aspartate aminotransferase increased ([2]; Crossover (N = 10)): 1 (10.0) | Patients experiencing event (%): Back injury ([2]; Crossover (N = 10)): 0 | Patients experiencing event (%): Back pain ([2]; Crossover (N = 10)): 0 | Patients experiencing event (%): Blepharospasm ([2]; Crossover (N = 10)): 1 (10.0) | Patients experiencing event (%): Blood cholesterol increased ([2]; Crossover (N = 10)): 0 | Patients experiencing event (%): Blood creatinine increased ([2]; Crossover (N = 10)): 0 | Patients experiencing event (%): Blood iron decreased ([2]; Crossover (N = 10)): 0 | Patients experiencing event (%): Blood pressure increased ([2]; Crossover (N = 10)): 0 | Patients experiencing event (%): Blood triglycerides increased ([2]; Crossover (N = 10)): 0 | Patients experiencing event (%): Bowel movement irregularity ([2]; Crossover (N = 10)): 0 | Patients experiencing event (%): Bronchitis ([2]; Crossover (N = 10)): 0 | Patients experiencing event (%): Cartilage injury ([2]; Crossover (N = 10)): 0 | Patients experiencing event (%): Conjunctival laceration ([2]; Crossover (N = 10)): 0 | Patients experiencing event (%): Conjunctivitis ([2]; Crossover (N = 10)): 0 | Patients experiencing event (%): Constipation ([2]; Crossover (N = 10)): 0 | Patients experiencing event (%): Cough ([2]; Crossover (N = 10)): 0 | Patients experiencing event (%): Death ([2]; Crossover (N = 10)): 0 | Patients experiencing event (%): Depression ([2]; Crossover (N = 10)): 0 | Patients experiencing event (%): Diarrhoea ([2]; Crossover (N = 10)): 1 (10.0) | Patients experiencing event (%): Diplopia ([2]; Crossover (N = 10)): 0 | Patients experiencing event (%): Dry eye ([2]; Crossover (N = 10)): 0 | Patients experiencing event (%): Dry mouth ([2]; Crossover (N = 10)): 0 | Patients experiencing event (%): Dry skin ([2]; Crossover (N = 10)): 0 | Patients experiencing event (%): Ear discomfort ([2]; Crossover (N = 10)): 0 | Patients experiencing event (%): Ear pain ([2]; Crossover (N = 10)): 0 | Patients experiencing event (%): Eczema ([2]; Crossover (N = 10)): 1 (10.0) | Patients experiencing event (%): Electrocardiogram abnormal ([2]; Crossover (N = 10)): 1 (10.0) | Patients experiencing event (%): Erythema ([2]; Crossover (N = 10)): 0 | Patients experiencing event (%): Eye irritation ([2]; Crossover (N = 10)): 0 | Patients experiencing event (%): Eye pain ([2]; Crossover (N = 10)): 0 | Patients experiencing event (%): Eye pruritus ([2]; Crossover (N = 10)): 0 | Patients experiencing event (%): Face injury ([2]; Crossover (N = 10)): 0 | Patients experiencing event (%): Faeces soft ([2]; Crossover (N = 10)): 0 | Patients experiencing event (%): Fall ([2]; Crossover (N = 10)): 0 | Patients experiencing event (%): Gastroenteritis ([2]; Crossover (N = 10)): 1 (10.0) | Patients experiencing event (%): Hair texture abnormal ([2]; Crossover (N = 10)): 0 | Patients experiencing event (%): Hand fracture ([2]; Crossover (N = 10)): 0 | Patients experiencing event (%): Headache ([2]; Crossover (N = 10)): 0 | Patients experiencing event (%): Hordeolum ([2]; Crossover (N = 10)): 0 | Patients experiencing event (%): Hypertension ([2]; Crossover (N = 10)): 0 | Patients experiencing event (%): Hypobarism ([2]; Crossover (N = 10)): 0 | Patients experiencing event (%): Hypothyroidism ([2]; Crossover (N = 10)): 0 | Patients experiencing event (%): Hysterectomy ([2]; Crossover (N = 10)): 0 | Patients experiencing event (%): Inflammation ([2]; Crossover (N = 10)): 0 | Patients experiencing event (%): Influenza ([2]; Crossover (N = 10)): 0 | Patients experiencing event (%): Insomnia ([2]; Crossover (N = 10)): 0 | Patients experiencing event (%): Intracranial pressure increased ([2]; Crossover (N = 10)): 0 | Patients experiencing event (%): Irritability ([2]; Crossover (N = 10)): 0 | Patients experiencing event (%): Jaw operation ([2]; Crossover (N = 10)): 0 | Patients experiencing event (%): Knee arthroplasty ([2]; Crossover (N = 10)): 0 | Patients experiencing event (%): Laryngitis ([2]; Crossover (N = 10)): 0 | Patients experiencing event (%): Lip swelling ([2]; Crossover (N = 10)): 0 | Patients experiencing event (%): Low density lipoprotein increased ([2]; Crossover (N = 10)): 0 | Patients experiencing event (%): Muscle spasms ([2]; Crossover (N = 10)): 0 | Patients experiencing event (%): Muscle strain ([2]; Crossover (N = 10)): 0 | Patients experiencing event (%): Musculoskeletal pain ([2]; Crossover (N = 10)): 0 | Patients experiencing event (%): Nasopharyngitis ([2]; Crossover (N = 10)): 1 (10.0) | Patients experiencing event (%): Nausea ([2]; Crossover (N = 10)): 0 | Patients experiencing event (%): Neck pain ([2]; Crossover (N = 10)): 0 | Patients experiencing event (%): Nephrolithiasis ([2]; Crossover (N = 10)): 1 (10.0) | Patients experiencing event (%): Nerve compression ([2]; Crossover (N = 10)): 0 | Patients experiencing event (%): Neuralgia ([2]; Crossover (N = 10)): 0 | Patients experiencing event (%): Obsessive-compulsive disorder ([2]; Crossover (N = 10)): 0 | Patients experiencing event (%): Oropharyngeal pain ([2]; Crossover (N = 10)): 1 (10.0) | Patients experiencing event (%): Osteoporosis ([2]; Crossover (N = 10)): 0 | Patients experiencing event (%): Overall ([2]; Crossover (N = 10)): 8 (80) | Patients experiencing event (%): Pain ([2]; Crossover (N = 10)): 0 | Patients experiencing event (%): Pain in extremity ([2]; Crossover (N = 10)): 0 | Patients experiencing event (%): Pain in jaw ([2]; Crossover (N = 10)): 0 | Patients experiencing event (%): Peripheral coldness ([2]; Crossover (N = 10)): 0 | Patients experiencing event (%): Pharyngitis streptococcal ([2]; Crossover (N = 10)): 0 | Patients experiencing event (%): Photophobia ([2]; Crossover (N = 10)): 0 | Patients experiencing event (%): Photopsia ([2]; Crossover (N = 10)): 0 | Patients experiencing event (%): Plantar fasciitis ([2]; Crossover (N = 10)): 0 | Patients experiencing event (%): Pleurisy ([2]; Crossover (N = 10)): 1 (10.0) | Patients experiencing event (%): Pneumonia ([2]; Crossover (N = 10)): 1 (10.0) | Patients experiencing event (%): Premenstrual syndrome ([2]; Crossover (N = 10)): 0 | Patients experiencing event (%): Punctate keratitis ([2]; Crossover (N = 10)): 0 | Patients experiencing event (%): Pyrexia ([2]; Crossover (N = 10)): 0 | Patients experiencing event (%): Radius fracture ([2]; Crossover (N = 10)): 0 | Patients experiencing event (%): Rash ([2]; Crossover (N = 10)): 1 (10.0) | Patients experiencing event (%): Rotator cuff syndrome ([2]; Crossover (N = 10)): 0 | Patients experiencing event (%): Sialoadenitis ([2]; Crossover (N = 10)): 0 | Patients experiencing event (%): Sinus congestion ([2]; Crossover (N = 10)): 0 | Patients experiencing event (%): Sinusitis ([2]; Crossover (N = 10)): 0 | Patients experiencing event (%): Sjogren's syndrome ([2]; Crossover (N = 10)): 0 | Patients experiencing event (%): Subdural haematoma ([2]; Crossover (N = 10)): 0 | Patients experiencing event (%): Syncope ([2]; Crossover (N = 10)): 0 | Patients experiencing event (%): Tendonitis ([2]; Crossover (N = 10)): 0 | Patients experiencing event (%): Thoracic outlet syndrome ([2]; Crossover (N = 10)): 0 | Patients experiencing event (%): Tongue dry ([2]; Crossover (N = 10)): 0 | Patients experiencing event (%): Tooth abscess ([2]; Crossover (N = 10)): 0 | Patients experiencing event (%): Tooth extraction ([2]; Crossover (N = 10)): 0 | Patients experiencing event (%): Toothache ([2]; Crossover (N = 10)): 0 | Patients experiencing event (%): Vision blurred ([2]; Crossover (N = 10)): 1 (10.0) | Patients experiencing event (%): Visual field defect ([2]; Crossover (N = 10)): 1 (10.0) | Patients experiencing event (%): Visual impairment ([2]; Crossover (N = 10)): 0 | Patients experiencing event (%): Vitamin B12 deficiency ([2]; Crossover (N = 10)): 0 | Patients experiencing event (%): Vitamin D decreased ([2]; Crossover (N = 10)): 0 | Patients experiencing event (%): Vitreous floaters ([2]; Crossover (N = 10)): 1 (10.0) | Patients experiencing event (%): Vulvovaginal candidiasis ([2]; Crossover (N = 10)): 0 | Patients experiencing event (%): Wrist fracture ([2]; Crossover (N = 10)): 0 | Patients experiencing event (%): Xanthelasma ([2]; Crossover (N = 10)): 0 | association between treatment groups and frequency of adverse events ([2]; in vivo): no association was observed | changes by physical examination, electrocardiogram, vital signs, hematology, biochemistry and lipid panels ([2]; in vivo): no changes were attributed to gildeuretinol acetate
